Laboratory results reported in patent publication US10159676B2, “Induction of tumor hypoxia for cancer therapy” (Virginia Commonwealth University, priority 2008, dated 2018).
“Also recorded” adds a separate entry of the source.

What was measured:
[1] = test system: UCI101 tumor xenografts; assay: Tumor and normal organ perfusion by DCE-MRI (gadolinium accumulation); type: in vivo, nude mice; conditions: stilbene 5c 50 mg/kg intraperitoneal, 4 hours after injection, same mice before vs after
Procedure: FIGS. 1A and B. Study of tumor perfusion using accumulation of gadolinium at 30 min after gadolinium injection. (A) T1-weighted images before and after stilbene 5c treatment in the same mouse. Nude mice with established subcutaneously UCI101 tumor xenografts were analyzed with DCE-MRI for tumor perfusion. DCE-MRI images were collected for 30 min after injection of gadolinium (OmniScan) into tail veins. The same mice were studied before and after stilbene 5c treatment to avoid individual variation. The left panels show the T1-weighted images before injection of gadolinium. The right panels show images at 30 min after injection of gadolinium. […] (B) Average of calculated gadolinium concentrations in tumor and muscle before and after stilbene 5c treatment. […]
Nude mice with tumor xenografts were anesthetized with 1% isoflurane and mixed oxygen. […] After the initial rate is established, subsequent MRI studies focused on the sustained increase in gadolinium signals, which also provide qualitative and quantitative information for tissue perfusion. […]
Stilbene 5c was investigated to examine whether it can suppress tumor blood flow and eventually lead to tumor hypoxia. […] After injected with 20 μl of gadolinium (OmniScan) via the tail vein, mice were analyzed with a rapid sequence MRI every minute for total of 30 min. […]

[2] = test system: UCI-101 tumor xenograft; assay: Tumor growth, stilbene 5c with or without bevacizumab; type: in vivo, nude mice
Procedure: FIG. 4. Efficacy of stilbene 5c in vivo and enhanced effect by bevacizumab. Nude mice were injected with UCI-101 cells subcutaneously and mice are treated with stilbene 5c at 20 mg/kg/day Monday-Friday with or without bevacizumab 10 mg/kg twice a week. Tumor volume was calculated by the long and short axes. Each group contains 8 mice and the average tumor volumes and standard deviations were plotted against days.
Tumor cell lines used in this study include UCI-101 ovarian cancer cells and Hep3B hepatocellular carcinoma cells. Cells are grown in IMEM and DMEM, respectively, supplemented with 10% fetal bovine serum, glutamine, and penicillium/streptomycin in 5% CO2 humidified environment. When cells were grown to 80% confluent, cells were harvested with 1% trypsin and washed with phosphate-buffered saline three times before injected subcutaneously into nude mice. For mouse xenograft studies, 2×10^6 tumor cells were injected in the back subcutaneously. Nude mice were purchased from NCI Development Therapeutic Program as described. Tumor size was monitored by long and short axes (a and b, respectively) by a caliber and tumor volume was calculated by the formula ab^2/2. […]. Treatment with AAA bevacizumab was done by tail vein injection at a dose of 10 mg/kg.
Next we used ovarian cancer UCI101 cells to study the in vivo efficacy of stilbene 5c We first administered stilbene 5c with intraperitoneal injection at 25 mg/kg three times a week. Tumor volume was calculated by measuring the long and short axes. […] The failure could be due to the possibility that intermittent dosing leaves a viable rim of tumor, which survives the treatment of VDAs by getting nutritional and blood support from surrounding normal vasculature. When treatment with VDAs is stopped, the viable rim of tumor grows quickly. Tumor vasculature recovers quickly by recruitment of the mobilized endothelial progenitor cells. Based on this rationale, we combined stilbene 5c with bevacizumab, which was used to neutralize VEGF secreted by UCI-101 tumor cells. […]

`COc1cc(/C=C\c2ccc(OC)c(N)c2)cc(OC)c1` [stilbene 5c, cis-3, 4′, 5-trimethoxy-3′-aminostilbene] was tested, and the “concentration of gadolinium in tumor after stilbene 5c treatment (decreased to, average)” value ([1]; 30 min after gadolinium, 6 mice) was 62.8%, the “concentration of gadolinium in muscle after stilbene 5c treatment” value [1] was “no significant change; also recorded: did not change” and the “difference in tumor growth between control and treated mice” value ([2]; intraperitoneal 25 mg/kg three times a week) was “did not detect any difference”. For the same molecule, the tumor growth suppression ([2]; stilbene 5c 20 mg/kg/day Monday to Friday for two weeks, bevacizumab 10 mg/kg twice a week for 5 doses) was “about 45%”.
